Assay [1] deals with HeLa cells. Description: cell proliferation assay, HeLa cells. The assay is classed as cell-based. Here is the method:
Cell Culture and transient overexpression. HeLa, RKO, and 293T cells were cultured in DMEM (10% FBS), and Hela S3 and MCF-7 cells in RPMI1640 (10% FBS) in a water jacket cell culture incubator with 5% CO2. Transient transfection was performed using kit as described by the manufacturer. Ectopic overexpression of indicated proteins was performed using pSG5-myc-STRAP, pSG5-eIF4AI, and pcDNA-Flag-4B(wt)
Cell Proliferation Assay. 1×10^5 of indicated cells in each well of a 96-well plate were treated with indicated compounds for 24 h followed by addition of 0.11 μCi of [^3H]-thymidine (6.7 Ci/mmol) per well for 6 h, followed by harvesting to GF/C filtermats using a cell harvester. Filtermats were air-dried and scintillation counted. IC50s were determined from quadruplicate data readings and curve-fitting analysis.

The test system of assay [2] is HeLa cells. The format is cell-based.

Consider one compound from US8841285B2, “Potent immunosuppressive agents, derivatives and uses” (priority 2002, dated 2014).

For `CC(/C=C/C(C)=C/[C@@H]1Cc2nc(cs2)[C@@H](C)C[C@@H](N)CC(=O)O[C@@H](C)C/C(C)=C/C=C\C(=O)O1)=C\CN(C)C` [Pat A (1), Pateamine A], the “reversibility of antiproliferative effect” value with HeLa cells [1] (HeLa cells (FIG. 13)) is “irreversible”. Moreover, the “sensitivity on overexpression of STRAP” value in the assay on HeLa cells [1] (HeLa cells overexpressing STRAP) is listed as “did not alter sensitivity”. In the assay with HeLa cells [1] (HeLa cells overexpressing eIF4AI vs empty vector), the “increase in IC50 on overexpression of eIF4AI” value is given as 5 fold. The stress granule formation result in the assay with HeLa cells [2] is “capable of inducing stress granule formation”.
